Measured values: PMC4433340 (PLoS Neglected Tropical Diseases, 2015)

How the values were obtained:
[1] = test system: E-selectin, ICAM-1 and VCAM-1 expression on T. cruzi-infected EA.hy926 and HUVEC cells; assay: Endothelial cell adhesion molecule surface expression by flow cytometry / immunofluorescence; assay type: cell-based, human; conditions: 5 μM simvastatin or 20 μM benznidazole for 24 hours before 16 hours T. cruzi infection (MOI 10); EA.hy926 and HUVEC
Experimental: Then, cells were infected with trypomastigotes at a MOI of 10 and incubated for 16 hours. Cells were detached with 1X EDTA-PBS at 0.5 mM. The harvested cells were washed with cold PBS and centrifuged at 800 x g for 5 minutes. Then, cells were washed with flow cytometry buffer three times. 100 μL of cell suspensions were incubated for 45 min at 4°C in the dark with mouse monoclonal anti- human E-selectin (5 μL undiluted), ICAM-1(3 μL undiluted), and VCAM-1 (1 μL undiluted) that were conjugated with PE, FITC and APC, respectively (BioLegend, USA). Cell suspensions were analyzed by flow cytometry using a FACSAria-III flow cytometer (BD Biosciences, USA). A homogeneous cell population was selected by size vs. granularity in log scale for these two conditions.
2x10^4 EA.hy926 cells/slide were seeded in Lab-Tek II Chamber Slide^TM (ThermoScientific, USA) and allowed to adhere overnight. […] After 16 hours of infection, cells were fixed in 4% formaldehyde–0.1 M phosphate buffer (pH 7.3) for 10 min. Cells were blocked with 3% bovine serum albumin for 1 hour. Then, cells were incubated with monoclonal antibodies against E-selectin (1:100), VCAM-1 (1:250) and ICAM-1 (1:100) (from Abcam, UK) overnight at 4°C. The samples were washed with PBS and incubated with anti-rabbit IgG that had been conjugated with fluorescein (1:100) from Sigma-Aldrich for 1 h. Finally, nuclei were stained with DAPI for 5 minutes and mounted with Dako Fluorescence Mounting (Dako, USA). The cells were photographed using a Nikon Eclipse 400 fluorescence microscope (Nikon, Japan), and images were analyzed by mean intensity using ImageJ software (ImageJ 1.47v).

[2] = test system: NF-κB p65 in T. cruzi-infected EA.hy926 cells; assay: Nuclear p65 localization by confocal microscopy; assay type: cell-based, human; conditions: 5 μM simvastatin or 20 μM benznidazole before T. cruzi 1 hour
Experimental: 2x10^4 EA.hy926 cells were seeded in Lab-Tek II Chamber Slides^TM for 12 hours. Cells were fixed in 3.7% formaldehyde–0.1 M phosphate buffer (pH 7.3) for 10 min. They were then washed with cytoskeletal buffer followed by permeabilization for 5 min with Triton-X100 0.5%. Cells were blocked with 3% bovine serum albumin for 1 hour. […] The samples were washed with PBS and incubated with anti-rabbit IgG conjugated with fluorescein (1:100) from Sigma-Aldrich for 1 hour. Finally, nuclei were stained with DAPI for 5 minutes and mounted in Dako fluorescence mounting media. The cells were photographed and ten pictures per well were obtained; images were analyzed using ImageJ software (ImageJ 1.47v).

O=C(Cn1ccnc1[N+](=O)[O-])NCc1ccccc1 [Benznidazole]
E-selectin, ICAM-1 and VCAM-1 surface expression [1]: prevent cell adhesion molecule expression | Nuclear p65 localization [2]: decreased nuclear p65 localization
